ChEMBL document CHEMBL1127971, “Novel conformationally constrained HIV-1 protease inhibitors: rational design, enzyme inhibition, and X-ray structure of an enzyme-inhibtor complex” (Bioorg Med Chem Lett, 1994)

biological target: Human immunodeficiency virus type 1 protease (Human immunodeficiency virus 1, UniProt Q72874); test: Inhibition of human immunodeficiency virus type 1 (HIV-1) protease

SMILES | IC50 [µM]
CC(C)[C@H](NC(=O)OCc1ccccc1)C(=O)N[C@@H](Cc1ccccc1)[C@]1(O)CCN([C@@H](Cc2ccccc2)C(=O)N[C@H]2c3ccccc3C[C@H]2O)C1 | 0.22
CC(C)(C)NC(=O)[C@H](CC1CCCCC1)N1CC[C@@](O)([C@H](Cc2ccccc2)NC(=O)OC(C)(C)C)C1 | 37
CC(C)(C)OC(=O)N[C@@H](Cc1ccccc1)[C@]1(O)CCCN([C@@H](Cc2ccccc2)C(=O)N[C@H]2c3ccccc3C[C@H]2O)C1 | > 100
CC(C)C[C@@H](C(=O)NC(C)(C)C)N1CCC[C@@](O)([C@H](Cc2ccccc2)NC(=O)OC(C)(C)C)C1 | > 100
CC(C)(C)NC(=O)[C@H](CC1CCCCC1)N1CCC[C@](O)([C@H](Cc2ccccc2)NC(=O)OC(C)(C)C)C1 | > 100
CC(C)(C)OC(=O)N[C@@H](Cc1ccccc1)C1(O)CCN([C@@H](Cc2ccccc2)C(=O)N[C@H]2c3ccccc3C[C@H]2O)CC1 | 1.46
CC(C)(C)OC(=O)N[C@@H](Cc1ccccc1)[C@@]1(O)CCN([C@@H](Cc2ccccc2)C(=O)N[C@H]2c3ccccc3C[C@H]2O)C1 | 6
CC(C)(C)OC(=O)N[C@@H](Cc1ccccc1)[C@]1(O)CCN([C@@H](Cc2ccccc2)C(=O)N[C@H]2c3ccccc3C[C@H]2O)C1 | 0.6
CC(C)C[C@@H](C(=O)NC(C)(C)C)N1CCC(O)([C@H](Cc2ccccc2)NC(=O)[C@@H](NC(=O)OCc2ccccc2)C(C)C)CC1 | 26.7
O=C(N[C@@H](Cc1ccccc1)C1(O)CCN([C@@H](Cc2ccccc2)C(=O)N[C@H]2c3ccccc3C[C@H]2O)CC1)O[C@H]1CCOC1 | 29.7
CC(C)[C@H](NC(=O)OCc1ccccc1)C(=O)N[C@@H](Cc1ccccc1)C1(O)CCN(CCc2ccccc2)CC1 | 38.7
CC(C)(C)NC(=O)[C@H](CC1CCCCC1)N1CCC(O)([C@H](Cc2ccccc2)NC(=O)OC(C)(C)C)CC1 | > 100
